Key:
[1] = target: T1, EGFR (Homo sapiens (Human), UniProt P00533); test: A549 cell lysis and immunoassay, phospho-EGFR (Y1068) inhibition; format: cell-based; set-up: key: X: EGFR bound and autophosphoration of EGFR inhibited in cells; conditions: A549 cells; for pEGFR inhibition (A549, compound concentration, 24 h): compound concentration 10 μM
Procedure: (§1) A549 cells (ATCC) were cultured in Dulbecco's Modified Eagle's Medium (DMEM) (Wisent) supplemented with 10% FBS and 1% penicillin/streptomycin. Cells were seeded in 6-well plates at 530,000 cells/well and incubated at 37° C., 5% CO2 for 16 hours. Cells were starved in DMEM containing 1% FBS for 4 hours before they were treated with the indicated concentrations of compound or DMSO alone and incubated at 37° C., 5% CO2 for 24 hours. Prior to cell harvest and lysis, 50 ng/ml human epidermal growth factor (hEGF) (Sigma) was added to the cells and incubated at 37° C., 5% CO2 for 10 minutes. Conditioned media was discarded, and adherent cells were washed with PBS before they were scraped on ice. Cell suspensions were centrifugated at 2,000 RPM for 5 minutes at 4° C. and supernatants were discarded. Cell pellets were resuspended with 1× RIPA buffer (Millipore) and incubated on ice for 15 minutes. Protein lysates were extracted by centrifugating at 20,000 RPM for 20 minutes at 4° C. Proteins were separated and total EGFR protein levels were quantified by Simple Western Immunoassay (ProteinSimple) using the Protein Normalization Assay Module for Jess according to the manufacturer's protocol, using a protein concentration of 0.125 μg/μl and an antibody targeting EGFR (clone #EP38Y, Abcam) diluted to 1:400. Phosphorylated EGFR protein levels were quantified with the same assay using a protein concentration of 1 μg/μl and an antibody targeting pEGFR (Y1068) (Cell Signalling) diluted to 1:25. EGFR and phosphorylated EGFR levels were normalized to the Jess Protein Normalization Reagent loading control and subsequently to the DMSO control.

[2] = target: T1, EGFR; test: A549 cell lysis and immunoassay, total EGFR degradation; format: cell-based; set-up: key: Y: EGFR bound in cells and EGFR degradation occurred; conditions: A549 cells; for EGFR degradation (A549, compound concentration, 24 h): compound concentration 10, 24 h
Procedure: as §1

[3] = target: T1, EGFR; test: Time-dependent inhibition of EGFR (HTRF); format: biochemical; conditions: pre-incubation 0-60 min; for Time-dependent inhibition of EGFR: product formation versus pre-incubation time: mono-exponential decay fit
Procedure: For the time-dependent inhibition experiments, the activity of EGFR kinase was monitored using a HTRF® KinEASE-TK kit from Cisbio (62TK0PEC) as described above. Six compounds showing higher potency during dose response analysis against EGFR, were further evaluated for their change in inhibitory potency over time. Ibrutinib was used as a positive control. The selected compounds were pre incubated with the kinase at 11 different concentrations, ranging from […] to 25 uM final compound concentrations. The pre incubation times were 0, 2, 5, 10, 15, 30, 45 and 60 min. After the preincubation, the reaction was initiated by adding biotinylated substrate and ATP and the reaction was allowed to proceed for 45 min. […] The reaction was terminated by adding 31.25 nM SA-XL665 and 100 fold diluted europium labelled antibody (Eu-Ab), diluted in 1× detection buffer that contained EDTA. After 60 min of incubation, the fluorescence emission was measured at 620 nm and 665 nm. The ratio of Em 665 nm to Em 620 nm was proportional to the amount of substrate phosphorylated by the kinase. Product formation vs pre-incubation time data were fitted to a one phase exponential decay equation using GraphPad Prism. The same product formation vs inhibitor concentration data were also fitted to a log(antagonist) vs. response—Variable slope equation in GraphPad Prism to provide IC50 values at different pre incubation times.

T1 sequence (P00533 25-1210): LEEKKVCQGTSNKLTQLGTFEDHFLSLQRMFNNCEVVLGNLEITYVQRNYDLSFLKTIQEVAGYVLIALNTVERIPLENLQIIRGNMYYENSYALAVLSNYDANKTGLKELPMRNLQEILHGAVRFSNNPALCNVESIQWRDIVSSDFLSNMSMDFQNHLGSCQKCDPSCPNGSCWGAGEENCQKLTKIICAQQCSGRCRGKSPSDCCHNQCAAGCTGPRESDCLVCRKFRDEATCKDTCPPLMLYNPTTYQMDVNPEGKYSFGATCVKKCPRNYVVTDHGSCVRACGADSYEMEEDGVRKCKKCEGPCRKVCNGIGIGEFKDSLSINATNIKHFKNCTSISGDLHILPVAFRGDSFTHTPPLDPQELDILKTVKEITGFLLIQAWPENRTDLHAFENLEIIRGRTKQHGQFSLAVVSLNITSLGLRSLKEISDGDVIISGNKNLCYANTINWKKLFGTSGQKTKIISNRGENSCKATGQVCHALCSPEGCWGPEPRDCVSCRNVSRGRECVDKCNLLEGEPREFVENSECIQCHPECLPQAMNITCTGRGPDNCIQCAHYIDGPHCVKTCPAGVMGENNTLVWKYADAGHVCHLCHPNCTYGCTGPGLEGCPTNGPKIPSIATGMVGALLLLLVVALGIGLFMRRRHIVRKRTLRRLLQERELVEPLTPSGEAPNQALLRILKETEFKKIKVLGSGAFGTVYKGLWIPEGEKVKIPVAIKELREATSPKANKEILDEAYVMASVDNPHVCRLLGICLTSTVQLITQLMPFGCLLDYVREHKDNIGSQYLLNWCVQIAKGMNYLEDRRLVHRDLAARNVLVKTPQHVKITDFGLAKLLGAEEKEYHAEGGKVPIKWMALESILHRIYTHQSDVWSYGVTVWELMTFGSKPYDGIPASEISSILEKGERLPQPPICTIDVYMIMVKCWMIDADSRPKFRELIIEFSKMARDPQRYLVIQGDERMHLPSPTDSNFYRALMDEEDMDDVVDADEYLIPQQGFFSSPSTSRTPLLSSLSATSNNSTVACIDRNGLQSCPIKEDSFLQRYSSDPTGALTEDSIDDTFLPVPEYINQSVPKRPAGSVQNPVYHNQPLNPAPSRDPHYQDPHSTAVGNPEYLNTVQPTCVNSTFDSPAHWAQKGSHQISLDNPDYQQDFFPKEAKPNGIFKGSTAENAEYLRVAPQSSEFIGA

Row | pEGFR inhibition (A549, 1 μM, 24 h) [1] | pEGFR inhibition (A549, compound concentration, 24 h) [1] | EGFR degradation (A549, 1 μM, 24 h) [2] | EGFR degradation (A549, compound concentration, 24 h) [2] | Structure (SMILES) | Time-dependent inhibition of EGFR: product formation versus pre-incubation time [3] | Time-dependent inhibition of EGFR: IC50 values versus pre-incubation time [3]
1 | X | X | Y | Y | CS(=O)(=O)c1c(F)c(F)c(F)c(F)c1Nc1cc2c(Nc3ccc(F)c(Cl)c3)ncnc2cc1O[C@H]1CCOC1 [Compound I-2, (S)—N^4-(3-chloro-4-fluorophenyl)-N^6-(2,3,4,5-tetrafluoro-6-(methylsulfonyl)phenyl)-7-((tetrahydrofuran-3-yl)oxy)quinazoline-4,6-diamine] | concentration-dependent first order loss of enzyme activity | decrease as pre-incubation times increase
2 | X | X |  | Y | C[S+]([O-])c1c(F)c(F)c(F)c(F)c1C(=O)Nc1cc2c(Nc3ccc(F)c(Cl)c3)ncnc2cc1OC1CCOC1 (centres unmarked) [Compound I-3] | concentration-dependent first order loss of enzyme activity | decrease as pre-incubation times increase
3 | X | X | Y | Y | C[S+]([O-])c1c(F)c(F)c(F)c(F)c1Nc1cc2c(Nc3ccc(F)c(Cl)c3)ncnc2cc1O[C@H]1CCOC1 (stereo partly drawn) [Compound I-4, N^4-(3-chloro-4-fluorophenyl)-N^6-(2,3,4,5-tetrafluoro-6-(methylsulfinyl)phenyl)-7-(((S)-tetrahydrofuran-3-yl)oxy)quinazoline-4,6-diamine] | concentration-dependent first order loss of enzyme activity | decrease as pre-incubation times increase
